Reference: US20070225333A1, “3-Heterocyclyl-4-Phenyl-Triazole Derivatives as Inhibitors of the Vasopressin Via Receptor” (priority 2004, published 2007)

Molecular target: T1, human V1A receptor (Homo sapiens, UniProt P37288)
T1 construct: expressed in transfected cells; host or cells: CHO cells (CHO-hV1A line provided by Marc Thibonnier, Case Western Reserve University)
Assay: V1A filter binding assay ([3H]-AVP binding to CHO-hV1A membranes)
Settings: Ki by Cheng-Prusoff
Procedure: 1.0 V1A Filter Binding Assay
Receptor binding assays were performed on cellular membranes prepared from CHO cells stably expressing the human V1A receptor, (CHO-hV1A). The CHO-hV1A cell line was kindly provided under a licensing agreement by Marc Thibonnier, Dept. of Medicine, Case Western Reserve University School of Medicine, Cleveland, Ohio. CHO-hV1A cells were routinely maintained at 37° C. in humidified atmosphere with 5% CO2 in DMEM/Hams F12 nutrient mix supplemented with 10 % fetal bovine serum, 2 mM L-glutamine, 15 mM HEPES and 400 μg/ml G418. For bulk production of cell pellets, adherent CHO-hV1A cells were grown to confluency of 90-100% in 850 cm^2 roller bottles containing a medium of DMEM/Hams F12 Nutrient Mix supplemented with 10% fetal bovine serum, 2 mM L-glutamine and 15 mM HEPES. Confluent CHO-hV1A cells were washed with phosphate-buffered saline (PBS), harvested into ice cold PBS and centrifuged at 1,000 rpm. Cell pellets were stored at −80° C. until use. Cell pellets were thawed on ice and homogenised in membrane preparation buffer consisting of 50 mM Tris-HCl, pH 7.4, 5 mM MgCl2 and supplemented with a protease inhibitor cocktail, (Roche). The cell homogenate was centrifuged at 1000 rpm, 10 min, 4° C. and the supernatant was removed and stored on ice. The remaining pellet was homogenised and centrifuged as before. The supernatants were pooled and centrifuged at 25,000× g for 30 min at 4° C. The pellet was resuspended in freezing buffer consisting of 50 mM Tris-HCl, pH 7.4, 5 mM MgCl2 and 20% glycerol and stored in small aliquots at −80° C. until use. Protein concentration was determined using Bradford reagent and BSA as a standard.
Protein linearity followed by saturation binding studies were performed on each new batch of membrane. Membrane concentration was chosen that gave specific binding on the linear portion of the curve. Saturation binding studies were then performed using various concentrations of [^3H]-arginine vasopressin, [^3H]-AVP (0.05 nM-100 nM) and the Kd and Bmax determined.
Compounds were tested for their effects on [^3H]-AVP binding to CHO-hV1A membranes, (^3H-AVP; specific activity 65.5 Ci/mmol; NEN Life Sciences). Compounds were solubilised in dimethylsulfoxide (DMSO) and diluted to working concentration of 10% DMSO with assay buffer containing 50 mM Tris-HCL pH 7.4, 5 mM MgCl2 and 0.05% BSA. […] The binding reaction was initiated by the addition of 200 μl membrane and the plates were gently shaken for 60 min at room temperature. The reaction was terminated by rapid filtration using a Filtermate Cell Harvester (Packard Instruments) through a 96-well GF/B UniFilter Plate which had been pre-soaked in 0.5% polyethyleneimine to prevent peptide sticking. The filters were washed three times with 1 ml ice cold wash buffer containing 50 mM Tris-HCL pH 7.4 and 5 mM MgCl2. The plates were dried and 50 μl Microscint-0 (Packard instruments) was added to each well. The plates were sealed and counted on a TopCount Microplate Scintillation Counter (Packard Instruments). Non-specific binding (NSB) was determined using 1 μM unlabelled d(CH2)5Tyr(Me)AVP ([β-mercapto-β,β-cyclopentamethylenepropionyl,0-Me-Tyr^2,Arg^8]-vasopressin) (βMCPVP), (Sigma). The radioligand binding data was analysed using a four parameter logistic equation with the min forced to 0%. The slope was free fitted and fell between −0.75 and −1.25 for valid curves. Specific binding was calculated by subtracting the mean NSB cpm from the mean Total cpm. For test compounds the amount of ligand bound to the receptor was expressed as % bound=(sample cpm−mean NSB cpm)/specific binding cpm ×100. The % bound was plotted against the concentration of test compound and a sigmoidal curve was fitted. The inhibitory dissociation constant (Ki) was calculated using the Cheng-Prusoff equation: Ki=IC50/(1+[L]/Kd) where [L] is the concentration of ligand present in the well and Kd is the dissociation constant of the radioligand obtained from Scatchard plot analysis. […]

T1 sequence (P37288 whole entry): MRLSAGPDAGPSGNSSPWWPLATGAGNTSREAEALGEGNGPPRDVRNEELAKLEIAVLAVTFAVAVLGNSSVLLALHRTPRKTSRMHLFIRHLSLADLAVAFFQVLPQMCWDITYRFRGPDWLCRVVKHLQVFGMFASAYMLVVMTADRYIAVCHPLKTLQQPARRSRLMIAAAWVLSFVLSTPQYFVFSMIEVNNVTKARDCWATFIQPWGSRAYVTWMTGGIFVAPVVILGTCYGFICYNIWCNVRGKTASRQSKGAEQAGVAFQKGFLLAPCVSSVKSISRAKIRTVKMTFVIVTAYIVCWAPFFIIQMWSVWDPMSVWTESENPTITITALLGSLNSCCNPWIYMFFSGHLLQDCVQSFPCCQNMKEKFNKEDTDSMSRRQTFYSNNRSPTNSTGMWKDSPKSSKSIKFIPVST

| Compound | Ki |
| --- | --- |
| COCc1nnc(N2CCC(Oc3ccccn3)CC2)n1-c1ccc(Cl)cc1 [Example 33, 2-({1-[4-(4-Chlorophenyl)-5-(methoxymethyl)-4H-1,2,4-triazol-3-yl]piperidin-4-yl}oxy)pyridine] | 1.28 nM |
| Clc1ccc(-n2c(Cn3nccn3)nnc2N2CCC(Oc3ncccn3)CC2)cc1 [Example 34, 2-{1-[4-(4-Chloro-phenyl)-5-[1,2,3]triazole-2-ylmethyl-4H-[1,2,4]triazole-3-yl]-piperidin-4-yloxy}-pyrimidine] | 1.06 nM |
| CCOCc1nnc(N2CCC(Oc3ncccn3)CC2)n1-c1ccc(Cl)cc1 [Example 38] | 0.96 nM |

Further lines, results first:

| Ki | Compound |
| --- | --- |
| 0.5 nM | Cc1nnc(N2CCC(N(C)c3ccccn3)CC2)n1-c1ccc(Cl)cc1 [Example 40, N-{1-[4-(4-Chlorophenyl)-5-methyl-4H-1,2,4-triazol-3-yl]-piperidin-4-yl}-N-methylpyridin-2-amine] |
| 3.19 nM | Cc1nnc(N2CCC(Oc3ccccc3)CC2)n1-c1ccc(Cl)cc1 [Example 26, 1-[4-(4-Chloro-phenyl)-5-methyl-4H-[1,2,4]triazole-3-yl]-4-phenoxy-piperidine] |
| 1.49 nM | Cc1nnc(N2CCC(N(C)c3ncccn3)CC2)n1-c1ccc(Cl)cc1 [Example 41, N-{1-[4-(4-Chlorophenyl)-5-methyl-4H-1,2,4-triazol-3-yl]-piperidin-4-yl}-N-methylpyrimidin-2-amine] |
